# Assay results reported in patent US9359196B2, “Antiproliferative compositions comprising curcumin analogs and methods of producing and using same” (The Board of Regents of the University of Oklahoma, priority 2009, dated 2016).
# Read-outs that look alike come from different tables or passages of the source.
# What was measured:
# [1] = tested on: PANC-1 (pancreatic cancer) cells; assay: Cell proliferation study in PANC-1 cells; assay type: cell-based
# Protocol: (§1) Cell Culture and drug treatment: Human lung adenocarcinoma cell line NCI-H441 (ATCC Number: HTB-174) was obtained from the American Type Culture Collection (Manassas, Va.). H441 cells were maintained at 37° C. with 5% CO2 in McCoy's 5A Medium (Invitrogen, Carlsbad, Calif.) supplemented with 5% heat-inactivated fetal bovine serum (FBS). All media contained gentamicin at 50 μg/ml (GIBCO Laboratories, Grand Island, N.Y.). Other cells lines (PANC-1, MiaPaCa-2 and PC-3) were also similarly maintained, except that the cell culture medium was RPMI 1640 instead of McCoy's.
# To evaluate the anti-proliferative activity of synthesized bis(2-fluorobenzylidene)-4-piperidone and its derivatives, the cells were seeded in 96-well flat-bottom tissue culture plates at a density of 10×10^3 cells per well. The cells were allowed to attach and grow overnight. The test compounds were solubilized in dimethyl sulfoxide (DMSO), filtered through 0.2 μm nylon filter and added to cells at 1, 10, 25 and 100 μM concentrations in culture medium supplemented with 5% FBS. […]
# Cell Proliferation: The total number of cells after the treatment period was estimated by the hexosaminidase assay. […] The absorbance was measured at 405 nm. […] The data were analyzed as percent of control, where the control wells were treated with equivalent amounts of DMSO alone, and the analyzed data was presented as average±standard error of mean. […]
# [2] = tested on: lung adenocarcinoma cell line H441; assay: Cell proliferation (hexosaminidase assay) in lung adenocarcinoma H441 cells, Example 1; assay type: cell-based, human; conditions: for IC50: Homo sapiens, NCI-H441, 24 h of treatment
# Protocol: Cell Proliferation Studies: In order to assess the anti-proliferative activity of the synthesized compounds, an in vitro cell culture system of lung adenocarcinoma cell line H441 was used. The cell detachment and anti-proliferative activity was measured as a decrease in hexosaminidase enzyme activity associated with remainder of the adhered cells. [Landegren, 1984] […] The concentration versus cell proliferation plots were analyzed by an exponential fit (Table 1). The results were compared with the anti-proliferative activity of compound 1.
# as §1
# To evaluate the anti-proliferative activity of synthesized bis(2-fluorobenzylidene)-4-piperidone and its derivatives, the cells were seeded in 96-well flat-bottom tissue culture plates at a density of 10×10^3 cells per well. The cells were allowed to attach and grow overnight. The test compounds were solubilized in dimethyl sulfoxide (DMSO), filtered through 0.2 μm nylon filter and added to cells at 1, 10, 25 and 100 μM concentrations in culture medium supplemented with 5% FBS. The DMSO concentration was maintained at 0.1% per well. Control wells received equivalent volume of DMSO without any test compounds. The cells were allowed to remain in the treatment medium for 24, 48 and 72 hours.
# Cell Proliferation: The total number of cells after the treatment period was estimated by the hexosaminidase assay. [Landegren, 1984] Briefly, the medium was removed and hexosaminidase substrate solution in citrate buffer pH 5 (7.5 mM), […] (Calbiochem, San Diego, Calif.) was added at 60 μl per well. The plate was incubated at 37° C. in 100% humidity for 30 minutes, before stopping the reaction with 90 μl of 50 mM glycine containing 5 mM of EDTA (pH 10.4). The absorbance was measured at 405 nm. The experiments were conducted in triplicate, and repeated at least twice. The data were analyzed as percent of control, where the control wells were treated with equivalent amounts of DMSO alone, and the analyzed data was presented as average±standard error of mean. The differences among mean values were deemed significant at p<0.05.
# For IC50 calculations, a plot between the drug concentration and hexosaminidase activity was generated and the data was fitted either linearly or exponentially. The best fit was used for further processing of data.
# Nrf2 = assay: Nuclear extract immunoblot of phospho-Nrf2; assay type: cell-based, human; conditions: H441 cells, nuclear fraction
# Protocol: Nuclear extract and immunoblotting: Nuclear extract was prepared using a kit from Active Motif (Carlsbad, Calif.) following the manufacturer's instructions. Briefly, H441 cells were allowed to grow for 24 h in 6-well plates before treatment with CLEFMA. After 12 or 24 h, the cells were scraped into ice-cold PBS and centrifuged at 300×g for 5 min to obtain a pellet. The pelleted cells was resuspended in a hypotonic buffer (20 mM HEPES, pH 7.5, 5 mM NaF, 0.1 mM EDTA, and 0.01 mM Sodium molybdate) and allowed to swell for 15 min on ice. The cells were lysed by adding 50 μl 10% Nonidet P-40 and centrifuged for 30 sec to separate the cytoplasmic and nuclear fractions. The nuclear fraction was extracted after 30 min in an ice-cold complete lysis buffer obtained with the kit. The nuclear extract was separated by centrifugation for 10 min at 14,000×g at 4° C. To immunoblot nuclear factor-erythroid 2-related factor 2 (Nrf2), the nuclear protein (10 μg) was separated on a 4/20% SDS-PAGE gel, transferred onto nitrocellulose membrane and probed with rabbit anti-phospho-Nrf2 antibody and HRP-conjugated goat anti-rabbit IgG antibody. The chemiluminescence signal was developed by Pierce SuperSignal West Femto reagent (Thermo Scientific, Rockford, Ill.). Equal protein loading was confirmed by stripping the blot and re-probing it with anti-actin antibody. […]
# [3] = Histopathology of liver, lung and kidney; assay type: in vivo; conditions: rats treated with CLEFMA liposomes
# Description: After the animals were euthanized, a part of the liver, lung and kidney were fixed in 10% formalin. The formalin-preserved tissues were used for histology by staining 5 μm sections of paraffin-embedded tissues with H&E stain. The sections were read by a veterinary pathologist (OUHSC, Oklahoma City) in a blinded fashion for the presence of necrosis, hemorrhage, inflammation or any other pathological changes.
# [4] = tested on: CCL-151 normal lung fibroblasts; assay: Reactive oxygen species assay (DCFH-DA) in CCL-151 normal lung fibroblasts; assay type: cell-based
# Protocol: Reactive oxygen species (ROS) assay: The CLEFMA-induced generation of ROS in H441 and CCL-151 cells was measured using the OxiSelect assay kit (Cell Biolabs, Inc., San Diego, Calif.). Briefly, the cells were cultured in 96-well plates, and the cell-permeable fluorogenic probe 2′,7′-dichlorodihydrofluorescin diacetate (DCFH-DA) was added to the wells and the plate was incubated for 30-60 min. The wells were washed thrice with PBS and treated with CLEFMA in culture medium for 24 and 48 h. After the incubation period, the medium was removed and the cells were gently washed 2-3 times with PBS, and the fluorescence, indicating ROS activity, was measured at 480 nm/530 nm (excitation/emission wavelengths) using the Cytoflour 2300 (Millipore, Billerica, Mass.).
smiles,measurement,setting,value
"O=C(O)C=CC(=O)N1CC(=Cc2ccccc2Cl)C(=O)C(=Cc2ccccc2Cl)C1 [Compound 29, 4-[3,5-Bis-(2-chlorobenzylidene)-4-oxo-piperidin-1-yl]-4-oxo-2-butenoic acid]",potency of antiproliferative action,[1],enhanced the potency of antiproliferative action
same,"anti-proliferative activity in words, relative to the comparator named",[2],enhanced the potency of antiproliferative action
same,IC50,"[2]; 1-100 μM tested, fitted plot, read-out: IC50 value",1000 nM
same,IC50,[2]; read-out: IC50 (grouping relative to compound 1),< 30000 nM
same,Nrf2 activation and nuclear translocation,Nrf2,activated Nrf2 and caused its translocation into the nuclear fraction
same,"histopathological toxicity in liver, lung and kidney",[3],no toxicities in these tissues
same,ROS production,[4],did not increase ROS production in normal lung fibroblasts
